1 compound from patent US11679111B2, “Fatty acid synthase inhibitors” (priority 2016, dated 2023) can be followed below.

Read-outs that look alike come from different tables or passages of the source.

In one series the test system is BT474 cells. In words: Acetate and glucose incorporation into lipids in HER2+ BT474 breast cancer cell line. It is filed as cell-based. The note with it: Homo sapiens. As for the experimental part:
Incorporation of radiolabeled glucose or acetate in total lipids was measured according to published methods (Haystead and Hardie, 1986). HepG2 cells (80% confluent in 12 wells plates) were starved overnight in MEM Alpha, the medium was then changed with DMEM medium containing 0.1 g/L glucose 10% FBS and 5 μM insulin and 1 μCi 3-[^3H] D-glucose or 1 μCi [^3H]-acetate in addition to different concentrations of each compound. After incubation for 1 hour at 37° C., 5% CO2, the cells were washed with ice cold PBS and detached by treating with 100 μl trypsin for 10 min then 1 ml of ice cold PBS was added. The cells suspension was then sonicated for 3 times in 30 seconds intervals and kept on ice. From each well 1 ml of cell lysate was added to a 4 ml scintillation vial and 2 ml of MicroScint-E was added. The vials were mixed thoroughly then centrifuged for 30 min at 3000 rpm and the ^3H radioactivity was measured by liquid scintillation counting.
T474 cells were seeded in 6 well plates in 10% FBS 4.5 g/L glucose DMEM at a density of 400,000 cells/well. After 24 hours the media was changed with 0.1 g/L glucose DMEM containing different concentrations of HS-106. […] To each fraction, 1 ml of 25 g/L Butyl PBD dissolved in Toluene was added and radioactivity was measured by scintillation counting.

The test system of the next series is MCF10A cells. In words: Proliferation assay (Hoechst DNA content), non-tumorigenic cell line. It is filed as cell-based. As for the experimental part: MCF10A (5,000 cells/well), MCF7 (7,500 cells/well), MDA-MB-468 (5,000 cells/well), BT474 (7,500 cells/well), and SKBR3 (5,000 cells/well) were seeded in 96 well plates with 10% FBS 4 g/L glucose DMEM media except for MCF10A which was DMEM/F12 media. After 24 hours, cells were treated with different concentration of HS-106 or C75. Every 24 hours for five days, media from one of the plates was removed and plate was frozen at −80° C. After collecting all the time points, to each well 100 μl ddH2O was add and the plates were frozen again. Then 100 μI of Hoechst 33258 solution made in TNE buffer (1 μl from Hoechst stock (1 mg/ml in 1:4 DMSO:H20) in 1 ml of TNE (which contains 10 mM Tris, 2M NaCl and 1 mM Na2EDTA) and fluorescence was measured at Ex/Em: 355/460.

Another series relates to HIV-1. In words: HIV/TZM-bl assay, extracellular p24 ELISA. It is filed as cell-based. As for the experimental part:
HS-106 or C75 were dissolved in DMSO to achieve 10 mM stock concentration. The stock solution of each drug was serially diluted 3-fold with DMSO and 2 μL of each dilution was added to each well to achieve final concentration range from 10 μM to 4.6 nM fixing final [DMSO] at 1%. HIVNL4.3 was added to 3×10^4 TZM-bl cells at 10 ng/ml p24 equivalents in the presence of 15 μg/mL DEAE dextran. HIV-infected cells were incubated at 37° C. in 5% CO2 for 24 hours, washed with PBS, fresh media was added, and cell were incubated for another 24 hours. Supernatants were collected and stored at −80° C. until P24 ELISA assay. HIV-1 replication was assessed by quantitative p24 ELISA. Nevirapine (positive control) was obtained from the AIDS Reagent Repository and was used at […].
A general note: In an ELISA, binding on a coated surface is turned into a signal by an enzyme label.

In another series the test system is HepG2 cells. Briefly: HepG2 cell viability (Resazurin). Format: cell-based. As for the experimental part:
HepG2 cells were seeded in 96 well plates and after reaching 80% confluency, the cells were treated with different concentrations of HS-106 for 4 hours. At the end of the treatment time, 10 μl of 700 μM Resazurin (prepared with PBS) were added to each well. After 3 hours, the Resorufin fluorescence was measured at Ex/Em: 540/590 nm.
For orientation: Alamar Blue is a resazurin reagent that responds to reducing activity.

For series [1] the following is noted: 15 mg/kg IP.
In series [2] the test system is ATP binding proteins of BT474 cells lysate. In words: Elution of ATP Sepharose loaded with BT474 cells lysate. The note with it: 1, 2.5, 5 and 10 mM. As to the method:
FIGS. 13A-13D illustrate the characterization of purified FASN and Fasnall elution of ATP Sepharose. […] Lane 6 and 7 are 10 mM Staurosporine and 50 mM ATP, respectively, as positive controls.

Protocol for PBMC: Unfixed PBMCs were exposed to drug for 48 hours, and PBMC viability was assessed by flow cytometry using propidium iodine (PI) exclusion (BD Pharmingen) and Annexin V staining (BD Pharmingen). Viable cells are defined as cells that both exclude PI and are Annexin V negative.

A word on the EC50: it is the concentration needed to bring the measured effect to its halfway point. On to `Cc1sc2ncnc(NC3CCN(Cc4ccccc4)C3)c2c1C` (racemic) [HS-106, N-(1-benzylpyrrolidin-3-yI)-5,6-dimethylthieno[2,3-d]pyrimidin-4-amine], for which the IC50 in the series on BT474 cells (BT-474, acetate as tracer, read-out: IC50, acetate incorporation into total lipids) was around 1500 nM; with BT474 cells (BT-474, glucose as tracer, read-out: IC50, glucose incorporation into total lipids), 1660 nM. In addition, the inhibition of proliferation entry with MCF10A cells is given as “lower activity”. For the same compound, in the series with HIV-1 (Human immunodeficiency virus 1, TZM-bl cells, 48 hours post infection, read-out: EC50, HIV-1 p24 production), the half-maximal effective concentration (EC50) is 213 nM. The “antiviral index (TC50/EC50)” value in the series with HIV-1 (TZM-bl model) was found to be 47. Also, the “effect on PBMC viability” value in the series on PBMC is “negligible effects on cell viability”. Further, in the series with HepG2 cells, the HepG2 cell viability entry was “without affecting the cell viability”. Also, the “time of appearance in plasma after IP injection” value in series [1] is at most 5 min. For the same compound, the “elution of proteins from ATP Sepharose” value in series [2] is on record as “does not elute any proteins more than DMSO”.
